# Test results: patent publication US20040138145A1, “Application of intestinal biliary acid reuptake inhibitors for the prevention and treatment of alzheimer's disease” (Aventis Pharma S.A., priority 2002, published 2004)
# What was measured:
# Aβ peptide = experiment: Cerebral Aβ peptide levels (soluble and total brain fractions) in Tg53 transgenic mice, immunoelectrochemoluminescence assay; type: in vivo, mouse; conditions: for levels of total Aβ / levels of total Aβ reduced compared with control group: Test 3; for levels of total Aβ: control 108.1±8.5
# plasma cholesterol = experiment: Plasma cholesterol level in Tg53 transgenic mice after treatment in feed; type: in vivo, mouse
# Description: The compound A in powdered form was mixed at the dose of 0.01% (weight/weight) with standard feed in powdered form.
# Transgenic mice Tg53 (overexpressing the human APP transgene carrying the “Swedish” and “London” mutations, (2002 Wirths, et al. (2002). Brain Pathol. 12, 275-286), 8-10 week old females, were treated for 3 weeks. The mice were housed in an individual cage with drink being available ad libitum. Every day, 6 grams of powdered food (supplemented or otherwise with compound A) were distributed in each cage. Two groups of 11 to 12 animals (control regimen or regimen supplemented with compound A) were used. At the end of the treatment, a blood sample was collected and the plasma cholesterol level was determined using an automated device for biological analysis.
smiles,measurement,setting,value
CCCC[C@]1(CC)CS(=O)(=O)c2ccc(N(C)C)cc2[C@@H](c2cccc(NC(=O)CCCCNC[C@H](O)[C@@H](O)[C@H](O)[C@H](O)CO)c2)[C@H]1O [compound A],decrease in the cerebral level of soluble Aβ peptide compared to control regimen group,"Aβ peptide; Test 1, Tg53 females 8-10 weeks old, 0.01% (w/w) in feed, 3 weeks, p=0.0103",18%
same,cerebral levels of total peptide Aβ,"Aβ peptide; Test 2, female transgenic mice 15.5 weeks old at end of treatment, 0.01% in feed, n=8, control 364.2±40.9",196.3±17.8 ng/g of tissue
same,reduction in the cerebral level of soluble Aβ peptide compared with control regime group,"Aβ peptide; Test 2, female transgenic mice 15.5 weeks old at end of treatment, 0.01% in feed, p=0.0001",40%
same,cerebral levels of total peptide Aβ reduced compared with control regime group,"Aβ peptide; Test 2, female transgenic mice 15.5 weeks old at end of treatment, 0.01% in feed, p=0.0017",46%
same,levels of total Aβ,"Aβ peptide; 0.0001% in feed, n=8",85.4±4.1 ng/g of tissue
same,levels of total Aβ reduced compared with control group,"Aβ peptide; 0.0001% in feed, p=0.04",21%
same,levels of total Aβ,"Aβ peptide; 0.001% in feed, n=10",86.5±5.9 ng/g of tissue
same,levels of total Aβ reduced compared with control group,"Aβ peptide; 0.001% in feed, p=0.050",20%
same,levels of total Aβ,"Aβ peptide; 0.01% in feed, n=10",90.5±6.9 ng/g of tissue
same,levels of total Aβ reduced compared with control group,"Aβ peptide; 0.01% in feed, p=0.123, ns",16%
same,plasma cholesterol level,"plasma cholesterol; Test 1, Tg53 females 8-10 weeks old, 0.01% (w/w) in feed, 3 weeks, n=11, control 0.72±0.023",0.62 ± 0.030 g/L
same,plasma cholesterol level reduced compared to control regimen group,"plasma cholesterol; Test 1, Tg53 females 8-10 weeks old, 0.01% (w/w) in feed, 3 weeks, p=0.0154",14%
same,plasma cholesterol level,"plasma cholesterol; Test 2, female transgenic mice 15.5 weeks old at end of treatment, 0.01% in feed, n=8, control 0.85±0.03",0.70 ± 0.03 g/L
same,plasma cholesterol level reduced compared with control regime group,"plasma cholesterol; Test 2, female transgenic mice 15.5 weeks old at end of treatment, 0.01% in feed, p=0.0037",18%
